Test results from patent publication US11613750B2, “Methods of reducing virus molecule levels” (priority 2019, dated 2023).

Experiments:
[1] = test system: HBsAg; conditions: read-out: EC50, Extracell. HBsAg reduction; HepG2.2.15 cells
Method: (§1) Cell viability was assessed by ATP levels determined using the CellTiter-Glo reagent and the results normalized to the level in mock-treated cells. HBsAg levels were quantified using ELISA and the data normalized to the level in the mock-treated cells.
The cellular proteins GRP78/BIP, SRSF1, HNRNPA2B1, RPLP1, and RPLP2 were identified as having roles in HBV replication and infection. Various siRNAs and combinations thereof targeting the RNAs encoding these proteins were contacted with HepG2.2.15 cells at a final concentration of 7.5 nM.
The EC50 values of several siRNAs and combinations of siRNAs targeting HNRNPA2B1, GRP78, RPLP1, RPLP2, and/or SRSF1 were determined with respect to the ability to reduce HBsAg levels in HepG2.2.15 cells.
(§2) The ability of siRNAs targeting host factors that then results in the reduced production of multiple HBV molecules was evaluated by quantifying the amount of HBsAg, HBeAg, and Core protein produced by HepG2.2.15 cells after contacting with 10 nM of siRNAs that target HNRNPA2B1, GRP78, RPLP1, RPLP2, and SRSF1. We also contacted the cells with 5 nM of each set of siRNAs that targets both RPLP1 and RPLP2. The level of HBsAg, HBeAg, and Core were all determined using ELISAs.
(§3) The library of siRNAs of Example A5 were tested for the reduction of HBsAg secreted by HepG2.2.15 cells and in HBV virions.

[2] = test system: HepG2.2.15 cells; test: HepG2.2.15 cell viability, CellTiter-Glo; conditions: read-out: CC50, HepG2.2.15 cell viability; highest concentration tested 80 nM
Method: as §1
The effects on cell viability were quantified using the CellTiter-Glo reagent. All data were normalized to the amount of protein produced by mock-treated cells.
as §3

[3] = test system: RPLP1 mRNA; test: Target mRNA reduction by RT-qPCR in HepG2.2.15 cells; assay type: cell-based, human; conditions: 10 nM siRNA
From the text: (§4) The siRNAs identified as described in Example A6 should function by a mechanism that includes being loaded in the RISC complex to cleave the cognate mRNA, leading to the degradation of the mRNA. To examine whether the siRNAs are effective in reducing the target mRNA, we used reverse transcription coupled with quantitative polymerase chain reaction (RT-qPCR) to assess the level of the target mRNA in HepG2.2.15 cells. All 32 siRNAs described in Table 2 reduced the mRNA by more than 75% (Table 3).

[4] = test system: RPLP1 protein; test: Target protein reduction by Western blot in HepG2.2.15 cells; assay type: cell-based, human; conditions: 10 nM siRNA, 72 h
Method: (§5) The host factors likely function in viral infection as proteins. Therefore, we determined whether the siRNAs could decrease the amounts of the target protein. Cell transfected with 10 nM of each siRNA for 72 h were lysed and the target proteins identified using Western blots probed with target-specific antibodies. The effective siRNAs described in Table 3 reduced the levels of the proteins by between 28 and 92% of the mock-treated samples. The reduction in the proteins is less than the reduction of the target mRNA, likely due to the proteins have prolonged half-life and that more time is needed for their degradation. […] We reason that this is due to RPLP1 and RPLP2 functioning as heterodimers such that a decrease of one protein increases the vulnerability of the other protein to degradation. Similar concomitant decrease of the proteins was reported by Campos et al. (17). Finally, the levels of two cellular proteins that are not targeted by the siRNAs, P54nrb and GAPDH, were unaffected.

[5] = test system: HBeAg; conditions: 10 nM siRNA transfected into cells
Method: HBeAg in the cell culture media was assessed using ELISAs.
as §2, §3

[6] = test system: RPLP2 mRNA; test: Target mRNA reduction by RT-qPCR in HepG2.2.15 cells; assay type: cell-based, human; conditions: 10 nM siRNA
From the text: as §4

[7] = test system: RPLP2 protein; test: Target protein reduction by Western blot in HepG2.2.15 cells; assay type: cell-based, human; conditions: 10 nM siRNA, 72 h
Method: as §5

[8] = test system: HCoV-OC43; test: OC43 virion RNA, Branched DNA assay, infected HCT8 cells; assay type: cell-based, human coronavirus OC43; conditions: for OC43 vRNA reduction siRNA and siGRP78: 10 nM siRNA along with 10 nM of siRNA targeting GRP78, HCT8 cells; for OC43 vRNA reduction: 10 nM siRNA, HCT8 cells
Method: The siRNAs were transfected in the HCT8 cells at a final concentration of 10 nM. A positive control for the inhibition of Coronavirus infection, Remdesivir (Rem), was used at 0.9 μM. The virion RNAs (vRNAs) were quantified using a Branched DNA assay specific for OC43 RNA.
The two siRNAs are those referred to by compound number (see Table 2) in the horizontal bar, along with siRNA targeting GRP78, siGRP78. A positive control for the inhibition of Coronavirus infection, Remdesivir (Rem), was used at 0.9 μM. The vRNAs were quantified using a Branched DNA assay specific for OC43 RNA.
The siRNAs listed in Table 2 were transfected into human colon epithelial HCT8 cells and the amount of OC43 virion produced was quantified. In these assays, the OC43 vRNA was quantified using a Branched DNA assay (QuantiGene gene expression assay: ThermoFisher). As a positive inhibitory control, the infected cells were treated with Remdesivir. […] Examples of the inhibition of OC43 vRNA are illustrated in FIG. 5A.
A combination of siRNAs targeting the host factor should more robustly reduce OC43 virion production. To illustrate this, HCT8 cells were transfected with 10 nM of siRNAs from Table 2 along with 10 nM of siRNA targeting GRP78. The virion RNAs produced were quantified using the Branched DNA assay. […] A combination of siRNAs targeting host factors GRP78, SRSF1, RPLP1 and RPLP2 can lead to significant reduction in the production of human Coronavirus virion RNA from infected cells.

Substance	EC50 [1] [nM]	CC50 [2] [nM]	Target RNA reduction in HepG2.2.15 cells [3] [%]	Target protein reduction in HepG2.2.15 cells [4] [%]	HBeAg reduction HepG2.2.15 cells [5] [%]	Target RNA reduction in HepG2.2.15 cells [6] [%]	Target protein reduction in HepG2.2.15 cells [7] [%]	OC43 vRNA reduction siRNA and siGRP78 [8] [%]	OC43 vRNA reduction [8] [%]
33 (UUGGUCUUUUUGACUAAACCUUUAGGUUUAGUCAAAAAGACCAAUU; siRNA; Self-complementary hairpin strand, chemistry not given here, further chemistry not given here; listed as Homo sapiens) [compound 33]	1.54	> 80	83 ± 6	28 ± 4					
45 (GGAAAAAACAUUGAAGACGUCUUGACGUCUUCAAUGUUUUUUCCUU; siRNA; Self-complementary hairpin strand, chemistry not given here, further chemistry not given here; listed as Homo sapiens) [compound 45]	0.013	> 80			42 ± 5	98 ± 1	61 ± 7	89 ± 2	
49 (AAACAUUGAAGACGUCAUUTTAAUGACGUCUUCAAUGUUUTT; siRNA; Self-complementary hairpin strand, chemistry not given here, further chemistry not given here; listed as Homo sapiens) [compound 49]	0.026	> 80			32 ± 6	98 ± 1	59 ± 4	91 ± 3	
52 (CAAGGUUAUCAGUGUGCUGTTCAGCACACUGAUAACCUUGTT; siRNA; Self-complementary hairpin strand, chemistry not given here, further chemistry not given here; listed as Homo sapiens) [compound 52]	0.06	> 80			54 ± 5	98 ± 1	58 ± 1	91 ± 2	
50 (CGACCGGCUCAACAAGGUUTTAACCUUGUUGAGCCGGUCGTC; siRNA; Self-complementary hairpin strand, chemistry not given here, further chemistry not given here; listed as Homo sapiens) [compound 50]	0.095	> 80			42 ± 5	98 ± 1	48 ± 2	91 ± 2	
44 (UGAGCUGAAUGGAAAAAACAUUUAUGUUUUUUCCAUUCAGCUCAUU; siRNA; Self-complementary hairpin strand, chemistry not given here, further chemistry not given here; listed as Homo sapiens) [compound 44]	0.084	> 80			30 ± 4	99 ± 1	59 ± 11	92 ± 2	
41 (AUGGGAUUUGGCCUUUUUGAUUUAUCAAAAAGGCCAAAUCCCAUUU; siRNA; Self-complementary hairpin strand, chemistry not given here, further chemistry not given here; listed as Homo sapiens) [compound 41]	0.208	> 80			40 ± 4	97 ± 1	58 ± 2	81 ± 7	89 ± 5
40 (AGUCUGAAGAGUCAGAUGAUGUUCAUCAUCUGACUCUUCAGACUUU; siRNA; Self-complementary hairpin strand, chemistry not given here, further chemistry not given here; listed as Homo sapiens) [compound 40]	0.114	> 80			56 ± 3	98 ± 1	54 ± 2	79 ± 15	89 ± 5
43 (GUAUCGAGGCGGACGACGACCUUGGUCGUCGUCCGCCUCGAUACUU; siRNA; Self-complementary hairpin strand, chemistry not given here, further chemistry not given here; listed as Homo sapiens) [compound 43]	0.182	> 80			70 ± 5	94 ± 2	45 ± 4	92 ± 2	94 ± 1
51 (GAAGAUCUUGGACAGCGUGTTCACGCUGUCCAAGAUCUUCTT; siRNA; Self-complementary hairpin strand, chemistry not given here, further chemistry not given here; listed as Homo sapiens) [compound 51]	0.1	> 80			32 ± 4	98 ± 0	56 ± 5	90 ± 2	
